Laboratory results published in patent US11528912B2, “Bacillus methylotrophicus strain DR-08 producing natural volatile compound and having antibacterial activity, and use thereof” (GLOBAL AGRO CO., LTD., priority 2016, dated 2022).
Counter-ions that a name gives are not always drawn.

Key:
Format in all cases: cell-based
[1] = test system: Clavibacter michiganensis subsp. michiganensis; test: 96-well microplate bioassay, MIC; settings: read-out: Minimum inhibitory concentration (MIC)
[2] = test system: Pseudomonas syringae pv. actinidiae; test: 96-well microplate bioassay, MIC; settings: read-out: Minimum inhibitory concentration (MIC)
Description: (§1) The butanol extract produced as in Example 3 was dissolved in methanol at a level of 5 mg/mL, and antibacterial activity thereof against various plant pathogens was examined.
(§2) Then, dilution with sterilized water was performed to reach 10^6 CFU/ml, and inoculation into a 96-well plate was performed.
(§3) For the butanol extract of the Bacillus sp. strain DR-08, the butanol extract of the strain DR-08 and streptomycin sulfate as a control agent were made to have the highest concentrations of 500·μg/mL and 100 μg/mL, respectively, in a TSB medium into which 14 various phytopathogenic bacteria including Gram-negative and Gram-positive bacteria had been inoculated. Then, starting from the next well, the concentrations were decreased by 2-fold using an octapipette. The butanol extract of the strain DR-08 was used by being sequentially diluted by 2-fold from 500 μg/mL at the highest down to 15.6 μg/mL, and streptomycin sulfate as a control agent was used by being sequentially diluted by 2-fold from 100 μg/mL at the highest down to 3.1 μg/mL. Standing culture was performed at optimal growth conditions, and then growth of the phytopathogenic bacteria was measured at an absorbance of 595 nm with a microplate reader. Then, a minimum growth inhibitory concentration (MIC) value was determined.

[3] = test system: Pseudomonas syringae pv. lachrymans; test: 96-well microplate bioassay, MIC; settings: read-out: Minimum inhibitory concentration (MIC)
Description: as §1, §2, §3

[4] = test system: Xanthomonas arboricola pv. pruni; test: 96-well microplate bioassay, MIC; settings: read-out: Minimum inhibitory concentration (MIC)
Description: as §1, §2, §3

[5] = test system: Pectobacterium carotovora subsp. carotovora; test: 96-well microplate bioassay, MIC; settings: read-out: Minimum inhibitory concentration (MIC)
Description: as §1, §2, §3

Acidovorax konjaci = test: 96-well microplate bioassay, MIC; settings: Paracidovorax konjaci; read-out: Minimum inhibitory concentration (MIC)
Description: as §1, §2, §3

[6] = test system: Agrobacterium tumefaciens; test: 96-well microplate bioassay, MIC; settings: read-out: Minimum inhibitory concentration (MIC)
Description: as §1, §2, §3

[7] = test system: Xanthomonas euvesicatoria; test: microbe, parasite or virus in culture; settings: read-out: Minimum inhibitory concentration (MIC)
Burkholderia glumae = test: microbe, parasite or virus in culture; settings: read-out: Minimum inhibitory concentration (MIC)
[8] = test system: Xanthomonas arboricola pv. pruni; test: microbe, parasite or virus in culture; settings: 48 h, read-out: Clear zone
Ralstonia solanacearum = test: microbe, parasite or virus in culture; settings: read-out: Minimum inhibitory concentration (MIC)
[9] = test system: Xanthomonas axonopodis pv. citri; test: 96-well microplate bioassay, MIC; settings: read-out: Minimum inhibitory concentration (MIC)
[10] = test system: Acidovorax avenae subsp. cattleyae; test: 96-well microplate bioassay, MIC; parameters: key: —: Not active
Description: as §1, §2, §3

[11] = test system: Pectobacterium chrysanthemi; test: 96-well microplate bioassay, MIC; parameters: key: —: Not active
Description: as §1, §2, §3

[12] = test system: Xanthomonas oryzae pv. oryzae; test: microbe, parasite or virus in culture; settings: read-out: Minimum inhibitory concentration (MIC)

For `[H]/N=C(/N)N[C@H]1[C@H](O)[C@@H](O)[C@H](O[C@@H]2O[C@@H](C)[C@](O)(C=O)[C@H]2O[C@@H]2O[C@@H](CO)[C@H](O)[C@@H](O)[C@@H]2NC)[C@@H](N/C(N)=N\[H])[C@@H]1O` [Streptomycin sulfate, streptomycin sulfate], the MIC [1] was 25 µg/mL, the MIC [2] was 12.5 µg/mL and the MIC [3] was 50 µg/mL. For the same compound, the MIC [4] was 12.5 µg/mL, the MIC [5] was 12.5 µg/mL and the MIC (Acidovorax konjaci) was 6.25 µg/mL. For the same compound, the MIC [6] was 100 µg/mL, the MIC [7] was 12.5 µg/mL and the MIC (Burkholderia glumae) was 12.5 µg/mL. The zone of inhibition at 200 ppm [8] was 4 mm, the MIC (Ralstonia solanacearum) was 3.12 µg/mL and the MIC [9] was 6.25 µg/mL. The “Minimum inhibitory concentration (MIC)” value [10] was “—”, the “Minimum inhibitory concentration (MIC)” value [11] was “—” and the MIC [12] was 3.12 µg/mL.
